Reference: article PMC4980415 (Psychopharmacology, 2016)
Where a name gives a salt, the structure may show the parent alone.

Columns and labels:
[1] = system: Na^+ channel (site 2), sodium channel; experiment: Off-target binding, General SEP II panel; conditions: 10 μM ITI-214, mean of n = 2
B2 (H), bradykinin = target: T1, B2 (H), bradykinin (Homo sapiens, UniProt P30411); experiment: Off-target binding, General SEP II panel; conditions: 10 μM ITI-214, mean of n = 2
T1 construct: Caliper Life Sciences (contract screen)
T1 sequence (P30411 1-391): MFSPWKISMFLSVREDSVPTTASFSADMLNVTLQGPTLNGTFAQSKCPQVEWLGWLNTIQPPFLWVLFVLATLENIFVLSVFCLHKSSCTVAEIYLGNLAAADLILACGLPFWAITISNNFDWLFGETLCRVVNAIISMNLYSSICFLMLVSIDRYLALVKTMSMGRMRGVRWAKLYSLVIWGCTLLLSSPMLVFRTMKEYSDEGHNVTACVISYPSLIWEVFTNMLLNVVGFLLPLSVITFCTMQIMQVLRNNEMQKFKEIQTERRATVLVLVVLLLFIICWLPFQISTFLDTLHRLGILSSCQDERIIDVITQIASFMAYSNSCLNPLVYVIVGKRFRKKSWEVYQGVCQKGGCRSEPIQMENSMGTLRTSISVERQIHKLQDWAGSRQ

[2] = system: Alpha 1 (non-selective), adrenergic; experiment: Off-target binding, General SEP II panel; conditions: 10 μM ITI-214, mean of n = 2
[3] = system: conditioned avoidance responding in male Wistar rats; experiment: Conditioned avoidance response (CAR); assay type: in vivo, rat
Experimental: (§1) The drug was administered, per os (po), by gavage to rats in a volume of 2 ml/kg body weight. Oral dosing solutions were prepared fresh daily. […] The pH of the dosing solution was adjusted to ~pH 5.5 by dropwise addition of 0.1 N NaOH in saline and volume adjusted by addition of saline in preparation for intraperitoneal (ip) dosing. […] Control treatments were always the vehicle solutions of the corresponding drugs.
Avoidance behavior, escape behavior, escape failures, and inter-trial crosses were recorded, as described here: (1) avoidance (response to CS within 10 s); (2) escape (response to CS + UCS); and (3) escape failure (if the rat was unable to respond to the shock by moving into the opposite compartment within 50 s, the trial was terminated). The inter-trial interval (end of trial to start of new trial) varied randomly between 20 and 40 s. Rats were trained for five consecutive days and adapted to the shuttle box 5 min before each training session. Training sessions consisted of about 20 trials, randomly distributed over 15 min. Only rats that performed at least 90 % avoidance on the last day of training were included in the experiments. All subsequent test sessions were preceded by a pre-test to verify continued performance in the paradigm. Pre-tests and test sessions consisted of approximately ten trials, each randomly distributed over a 7.5-min period. […] Experimental days were always separated by at least two non-experimental days. Experimental tests were separated by at least 2 days to insure drug washout.
Results from the conditioned avoidance responding (CAR) protocol were analyzed using non-parametric procedures.

[4] = system: memory acquisition in male Wistar rats; experiment: Novel object recognition (NOR): acquisition, drug 2 h before T1; assay type: in vivo, rat; conditions: for Exploration time e1 (T1) / Exploration time e2 (T2): 2 h before T1, 24 h interval
Experimental: as §1
(§2) The object recognition test was performed as described elsewhere (Ennaceur and Delacour [1988]; Akkerman et al. 2014). The apparatus consisted of a circular arena, 83 cm in diameter. Half of the 40-cm-high wall was made of gray polyvinyl chloride, the other half of transparent polyvinyl chloride. The light intensity was equal in the different parts of the apparatus, as fluorescent red tubes provided a constant illumination of about 20 lx on the floor of the apparatus. Two objects were placed in a symmetrical position at about 10 cm from the gray wall. Four different sets of objects were used. The different objects were (1) a cone consisting of a gray polyvinyl chloride base (maximal diameter 18 cm) with a collar on top made of brass (total height 16 cm), (2) a standard 1 L transparent glass bottle (diameter 10 cm, height 22 cm) filled with water, (3) a large metal cube (10.0 × 5.0 × 7.5 cm) with two holes (diameter 1.9 cm), and (4) a large aluminum cube with a tapering top (13.0 × 8.0 × 8.0 cm). The objects used in this study were carefully selected to be “novelty neutral,” that is to say the rats have no innate preference for one over the other. In all cases, objects were of sufficient size and weight that rats could not move the objects.
(§3) A testing session consisted of two trials. The duration of each trial was 3 min. During the first trial (T1), the apparatus contained two identical objects (samples). Rats were placed in the apparatus facing the wall at the middle of the front (transparent) segment. After the first exploration period, the rat was put back in its home cage. Subsequently, after a 24-h delay interval, the rat was put in the apparatus for the second trial (T2). The times spent in exploring each object during T1 and T2 were recorded manually using a personal computer.
(§4) Exploration was defined as follows: directing the nose to the object at a distance of no more than 2 cm and/or touching the object with the nose. Sitting on the object was not considered as exploratory behavior. In order to avoid the presence of olfactory cues, the objects were always thoroughly cleaned with a 70 % ethanol solution before each trial. All combinations and locations of objects were used in a balanced manner to reduce potential biases due to preferences for particular locations or objects.
(§5) During the first 2 weeks after animal arrival, the animals were handled daily. They were then adapted to the procedure over the period of 2 days by allowing them to explore the apparatus (without any objects) for 3 min twice each day. […] After this, the rats were assigned to treatment conditions in a balanced manner, thereby insuring an equal distribution of object combinations among the treatment conditions. […] In all experiments, a 24-h inter-trial interval was used. In all cases, the experimenter was unaware of the treatment conditions that were being tested.
(§6) The basic measure recorded was the time spent by each rat exploring an object during T1 and T2. The time spent in exploring the two identical samples was represented by “a1” and “a2.” The time spent in T2 in exploring the sample and new object was represented by “a” and “b,” respectively. The following variables were calculated: e1 = a1 + a2, e2 = a + b, and d2 = (b − a) / e2. The e1 and e2 are measures of the total exploration time of both objects during T1 and T2, respectively. Differences in exploration times between treatment conditions were analyzed using a t test or one-way ANOVA. […]

[5] = system: late memory consolidation in male Wistar rats; experiment: Novel object recognition (NOR): late consolidation, drug 3 h after T1; assay type: in vivo, rat; conditions: for Exploration time e1 (T1) / Exploration time e2 (T2): 3 h after T1
Experimental: as §1, §2, §3, §4, §5, §6

CN1C(=O)c2c(nn(Cc3ccc(-c4cccc(F)n4)cc3)c2Nc2ccccc2)N2C1=N[C@@H]1CCC[C@@H]12 [ITI-214, (6aR,9aS)-2-(4-(6-fluoropyridin-2-yl)benzyl)-5-methyl-3-(phenylamino)-5,6a,7,8,9,9a-hexahydrocyclopenta-[4,5]imidazo[1,2-a]pyrazolo[4,3-e]pyrimidin-4-(2H)-one phosphate salt]
% Binding [1]: 88.44%
% Binding (B2 (H), bradykinin): 30.79%
% Binding [2]: 40.90%
effect on percent avoidances ([3]; 1 mg/kg po alone): no significant effect
effect on number of escape failures ([3]; CAR paradigm): Neither risperidone nor ITI-214 had significant effects
effect on avoidance behavior of rats given risperidone ([3]; ITI-214 1 mg/kg po with risperidone 0.8 mg/kg i.p.): did not affect avoidance behavior
Exploration time e1 (T1) ([4]; 0.1 mg/kg po): 28.38 (1.86) s
Exploration time e2 (T2) ([4]; 0.1 mg/kg po): 27.33 (1.48) s
Exploration time e1 (T1) ([4]; 0.3 mg/kg po): 27.55 (1.62) s
Exploration time e2 (T2) ([4]; 0.3 mg/kg po): 26.10 (1.69) s
Exploration time e1 (T1) ([4]; 1 mg/kg po): 27.97 (1.78) s
Exploration time e2 (T2) ([4]; 1 mg/kg po): 29.38 (1.38) s
Exploration time e1 (T1) ([4]; 3 mg/kg po): 27.28 (1.74) s
Exploration time e2 (T2) ([4]; 3 mg/kg po): 28.73 (1.62) s
Exploration time e1 (T1) ([4]; 10 mg/kg po): 26.21 (1.97) s
Exploration time e2 (T2) ([4]; 10 mg/kg po): 28.15 (1.38) s
effect on exploratory behavior during T1 or T2 ([4]; 0.1–10 mg/kg po 2 h before T1): no effect on exploratory behavior
Exploration time e1 (T1) ([5]; 0.1 mg/kg po): 26.20 (1.95) s
Exploration time e2 (T2) ([5]; 0.1 mg/kg po): 32.81 (2.24) s
Exploration time e1 (T1) ([5]; 0.3 mg/kg po): 29.36 (3.22) s
Exploration time e2 (T2) ([5]; 0.3 mg/kg po): 29.64 (2.15) s
Exploration time e1 (T1) ([5]; 1 mg/kg po): 25.93 (1.53) s
Exploration time e2 (T2) ([5]; 1 mg/kg po): 27.86 (2.43) s
Exploration time e1 (T1) ([5]; 3 mg/kg po): 25.62 (1.89) s
Exploration time e2 (T2) ([5]; 3 mg/kg po): 28.34 (2.95) s
effect on exploratory behavior ([5]; early and late consolidation experiments): no effects on exploratory behavior
full effective dose (d2 different from chance and from vehicle), late consolidation ([5]; po 3 h after T1): 1 mg/kg
